# Reference: PMC5870190, “A three-in-one-bullet for oesophageal cancer: replication fork collapse, spindle attachment failure and enhanced radiosensitivity generated by a ruthenium(II) metallo-intercalator” (Chemical Science, 2017)
# Tests used:
# [1] = system: OE21, OE33 or FLO-1 cells; experiment: Clonogenic survival assay with IR, three oesophageal cancer cell lines; format: cell-based, human; conditions: Ru1 2 μM or sub-cytotoxic cisplatin (500 nM OE21 and OE33, 300 nM FLO-1), 24 h before IR; range over three cell lines
# Procedure: (§1) Clonogenic survival assay. OE21, OE33 or FLO1 cells were treated with 2 µM Ru1 for 24 h before irradiation with 0-8 Gy using a 137Cs γ-irradiator (IBL637, CIS Bio Int.; dose rate = 0.809 Gy min−1). 1 h after irradiation, cells were detached using Trypsin and re-seeded in 6 well plates at a density of 300 – 20,000 cells/well in triplicate in an incrementally greater number of cells with increasing IR dose to ensure adequate colony formation. Cells were incubated for 7–14 days after re-seeding to allow colony formation before being fixed with 10% methanol, 10% acetic acid and stained with 0.4% methylene blue. OE33 cells required an additional formaldehyde fixation (4% in PBS, 5 mins) step before the addition of methylene blue solution or colony detachment occurred. Colonies containing 50 cells or greater were counted using a Gelcount instrument and accompanying software (Oxford Optronix). Plating efficiencies were determined for each treatment condition and normalised to an untreated control to provide the surviving fraction (S. F.). S.F. versus radiation dose curves were plotted in GraphPad Prism and fit using a second order polynomial function (R2 values > 0.99). Dose modifying factors (DMF) at a SF=0.1 were calculated using the equation: Dose modifying factor (DMF) = IR dose to give S.F. 0.1/IR dose plus compound to give S.F.0.1. […]
# [2] = system: FLO-1 human oesophageal adenocarcinoma; experiment: MTT assay, FLO-1 cells; format: cell-based
# Procedure: (§2) MTT assay. OE21, FLO-1 or hSAEC1-KT cells were seeded in 96 well plates at 20,000 cells/well (for 24 h treatment) or 10,000 cells/well (for 72 h treatment) and allowed to adhere for 24 h before treatment. OE33 cells were seeded in 48 well plates at 40,000 cells/well (24 h treatment) or 20,000 cells/well (72 h treatment). Cancer cell lines were treated with chemicals dissolved in RPMI media for consistency. After incubation, 0.5 mg/ml MTT (thiazolyl blue tetrazolium bromide) dissolved in serum-free medium was added for 60 minutes and the formazan product eluted using acidified isopropanol.
# (§3) The absorbance at 540 nm was quantified by plate reader (reference wavelength 650 nm). The metabolic activity of the cell population was determined as a percentage of a negative (solvent) control. […]
# (§4) For the determination of mutation induction, from the untreated and each treated condition, 2x10^5 cells were plated in 10 x 100 mm dishes in selective media (regular media
# [3] = system: hSAEC1-KT normal human small airway epithelial cells; experiment: MTT assay, hSAEC1-KT cells; format: cell-based
# Procedure: as §2, §3, §4
# [4] = system: OE21 human oesophageal squamous cell carcinoma; experiment: MTT assay, OE21 cells; format: cell-based; conditions: for IC50: MTT
# Procedure: as §2, §3, §4
# [5] = system: OE33 human oesophageal adenocarcinoma; experiment: MTT assay, OE33 cells; format: cell-based
# Procedure: as §2, §3, §4
# [6] = system: OE21 cells; experiment: Clonogenic survival assay with IR, OE21; format: cell-based, human; conditions: Ru1 2 μM or Cis 500 nM for 24 h before IR
# Procedure: as §1
# [7] = system: OE33 cells; experiment: Clonogenic survival assay with IR, OE33; format: cell-based, human; conditions: Ru1 2 μM or Cis 500 nM for 24 h before IR
# Procedure: as §1
# [8] = system: FLO-1 cells; experiment: Clonogenic survival assay with IR, FLO-1; format: cell-based, human; conditions: Ru1 2 μM or Cis 300 nM for 24 h before IR
# Procedure: as §1
# [9] = system: OE21 cells; experiment: DNA fibre assay (replication fork progression); format: cell-based, human
# Procedure: DNA fibre assay. The DNA fibre assay was performed as described previously.5 Briefly, OE21 cells were labelled with 30 µM CldU for 30 mins and then 250 µM IdU for an additional 30 mins. Either Ru1 (21 µM) or dppz (7 µM) was added during the second (IdU) nucleotide step (30 mins). DNA replication was terminated using ice-cold PBS and cells lysed (200 mM Tris-HCl pH 7.4, 50 mM EDTA and 0.5% SDS). DNA fibres were spread onto glass slides, fixed with methanol:acetic acid (3:1) and denatured with 2.5 M HCl. After blocking with 2% BSA, fibres were stained with anti-rat and anti-mouse 5-bromo-2′- deoxyuridine (BrdU) that specifically recognise either CldU (Abcam, dilution 1:500) or IdU (BD Sciences, 1:100). Anti-rat Cy3 (Jackson Immuno Research, 1:300) and anti-mouse Alexa-488 (Molecular Probes, 1:300) were used as the respective secondary antibodies. CldU- and IdU-labelled tracts were visualised using a Leica DMRB microscope with a DFC360FX camera and tract length measured by ImageJ software. Statistical analysis was performed by GraphPad Prism software using an unpaired t-test.
# Western blotting. Treated samples were washed with cold PBS and lysed in RIPA (radioimmunoprecipitation assay) buffer containing protease inhibitors (10 μg/mL leupeptin, 2 μg/mL pepstatin, 50 μg/mL antipain, 2 μg/mL aprotinin, 20 μg/mL chyprostatin, 2 μg/mL benzamidine, 1 mM phenylmethanesulfonyl fluoride) and phosphatase inhibitors (50 mM NaF, 1 mM […]
# Bis-Tris gels and LDS-PAGE. Gels were transferred onto nitrocellulose membrane and probed with primary antibodies in 5% BSA (bovine serum albumin) solutions at the following dilutions: 1/1000 dilution for majority of Cell Signaling antibodies and γH2AX. 1/500 for anti-p-ATR and anti-cleaved caspase 3. 1/200 anti-Chk1. 1/5000-1/10,000 anti- α-tubulin or β-actin.
# (§5) Reactions were visualised with a suitable secondary antibody conjugated with horseradish peroxidase (1/5000 dilution, Thermo). […]
# [10] = system: OE21 cells; experiment: Cell-cycle analysis by flow cytometry; format: cell-based, human; conditions: OE21, 7 μM, 24 h
# Procedure: (§6) phototoxic contribution to bio-activity. Doxorubicin (Sigma) was prepared in doubly-distilled water (10 mg/mL, 17.4 mM).
# [Ru(phen)2(dppz)]2+ (2 mM) was prepared in doubly-distilled water.
# Sub-cellular fractionation. OE21 or OE33 cells were treated in 12 well plates, washed with cold PBS (2x2 mls) and nuclear and cytosol fractions obtained using the Nuclei EZ Lysis kit (Sigma). Briefly, cells were washed with acidified PBS (pH 2.5) to remove the membrane-bound fraction and 0.4 ml EZ lysis buffer was added. Cells were detached by scraping, collected into eppendorfs, vortexed briefly and left for 5 minutes on ice. Samples were centrifuged (500g, 5 mins) and the supernatant (cytosol fraction) aspirated. The pellet (nuclear fraction) was re-suspended in 200 µl RIPA buffer. […] Ruthenium content was determined by ICP-MS analysis as described in a recent […]
# DNA fibre assay. […] CldU- and IdU-labelled tracts were visualised using a Leica DMRB microscope with a DFC360FX camera and tract length measured by ImageJ software. […]
# Western blotting. […] Protein content was determined by BCA assay. […]
# AnnexinV staining. […] This was incubated for 15 mins at room temperature, 400 µl binding buffer added and analysed by flow cytometry (FL1 and FL3 channels for FITC and PI respectively). […]
# [11] = system: OE21 cells; experiment: Western blotting of DNA damage response (DDR) markers; format: cell-based, human; conditions: OE21, 24 h treatment
# Procedure: as §6
# [Ru(phen)2(dppz)]2+ (2 mM) was prepared in doubly-distilled water. […]
# Western blotting. Treated samples were washed with cold PBS and lysed in RIPA (radioimmunoprecipitation assay) buffer containing protease inhibitors (10 μg/mL leupeptin, 2 μg/mL pepstatin, 50 μg/mL antipain, 2 μg/mL aprotinin, 20 μg/mL chyprostatin, 2 μg/mL benzamidine, 1 mM phenylmethanesulfonyl fluoride) and phosphatase inhibitors (50 mM NaF, 1 mM Na3VO4 and 20 mM β-glycerophosphate). Protein content was determined by BCA assay. Aliquots of cell lysates (10-50 μg total protein) were prepared in standard Laemmli buffer, heated at 95 °C for 5 minutes and resolved by NuPAGE® 4–12% Bis-Tris gels and LDS-PAGE. Gels were transferred onto nitrocellulose membrane and probed with primary antibodies in 5% BSA (bovine serum albumin) solutions at the following dilutions: 1/1000 dilution for majority of Cell Signaling antibodies and γH2AX. 1/500 for anti-p-ATR and anti-cleaved caspase 3. 1/200 anti-Chk1. 1/5000-1/10,000 anti- α-tubulin or β-actin.
# as §5
# [12] = cited from earlier work
molecule,measurement,setting,value
"N.N.[Cl][Pt][Cl] [Cisplatin, cisplatin]",dose modification factor (DMF) at surviving fraction of 0.1,[1],1.05–1.44
same,IC50,"[2]; FLO1, 24 h constant exposure",26.5 ± 0.7 µM
same,IC50,"[2]; FLO1, 72 h constant exposure",4.7 ± 0.7 µM
same,IC50,[3]; 24 h constant exposure,21.5 ± 5 µM
same,IC50,[3]; 72 h constant exposure,15.8 ± 2 µM
same,IC50,"[4]; OE21, 24 h constant exposure",22.6 ± 3.6 µM
same,IC50,"[4]; OE21, 72 h constant exposure",6.3 ± 0.6 µM
same,IC50,"[5]; OE33, 24 h constant exposure",11 ± 1.4 µM
same,IC50,"[5]; OE33, 72 h constant exposure",3.25 ± 1 µM
same,S.F.,"[6]; OE21, IR 0 Gy",1.000
same,S.F.,"[6]; OE21, IR 2 Gy",0.587
same,S.F.,"[6]; OE21, IR 4 Gy",0.320
same,S.F.,"[6]; OE21, IR 6 Gy",0.159
same,S.F.,"[6]; OE21, IR 8 Gy",0.049
same,S.F.,"[7]; OE33, IR 0 Gy",0.993
same,S.F.,"[7]; OE33, IR 2 Gy",0.280
same,S.F.,"[7]; OE33, IR 4 Gy",0.077
same,S.F.,"[7]; OE33, IR 6 Gy",0.022
same,S.F.,"[7]; OE33, IR 8 Gy",0.005
same,S.F.,"[8]; FLO-1, IR 0 Gy",0.929
same,S.F.,"[8]; FLO-1, IR 2 Gy",0.340
same,S.F.,"[8]; FLO-1, IR 4 Gy",0.080
same,S.F.,"[8]; FLO-1, IR 6 Gy",0.007
"c1ccc2nc3c4cccnc4c4ncccc4c3nc2c1 [dppz, dipyridophenazine]",IC50,"[2]; Homo sapiens, FLO-1, FLO1, 24 h constant exposure",7.5 ± 0.8 µM
same,IC50,"[2]; Homo sapiens, FLO-1, FLO1, 72 h constant exposure",1.9 ± 1.1 µM
same,IC50,"[3]; Homo sapiens, Epithelial cell, 24 h constant exposure",> 10 µM
same,IC50,"[3]; Homo sapiens, Epithelial cell, 72 h constant exposure",> 10 µM
same,IC50,"[4]; Homo sapiens, OE21, 24 h constant exposure",6.5 ± 2.1 µM
same,IC50,"[4]; Homo sapiens, OE21, 72 h constant exposure",3.3 ± 0.4 µM
same,increase in completely stalled/terminated replication forks (CldU tract only) compared to mock-treated,"[9]; Ru1 21 μM or dppz 7 μM during second (IdU) pulse, 30 min",three-fold
same,greater levels of stalled forks than Ru1,[9]; dppz 7 μM vs Ru1 21 μM,two-fold
same,IC50,"[5]; Homo sapiens, OE33, 24 h constant exposure",6.6 ± 2 µM
same,IC50,"[5]; Homo sapiens, OE33, 72 h constant exposure",5.7 ± 0.9 µM
same,cell-cycle response,[10],cells accumulated in G1 or early S phase
"COc1cccc2c1C(=O)c1c(O)c3c(c(O)c1C2=O)C[C@@](O)(C(=O)CO)C[C@@H]3O[C@H]1C[C@H](N)[C@H](O)[C@H](C)O1 [DOX, doxorubicin]",IC50,"[2]; Homo sapiens, FLO-1, Table S2, FLO1, 24 h constant incubation",6.1 ± 1.9 µM
same,IC50,"[2]; Homo sapiens, FLO-1, Table S2, FLO1, 72 h constant incubation",0.05 ± 0.02 µM
same,reduction in potency towards OE21 cells compared to OE33 or FLO-1 cells,[4]; 72 h exposure,three-fold
same,IC50,"[4]; Homo sapiens, Table S2, OE21, 24 h constant incubation",4.2 ± 0.3 µM
same,IC50,"[4]; Homo sapiens, Table S2, OE21, 72 h constant incubation",0.21 ± 0.07 µM
same,IC50,"[5]; Homo sapiens, Table S2, OE33, 24 h constant incubation",8.1 ± 2.7 µM
same,IC50,"[5]; Homo sapiens, Table S2, OE33, 72 h constant incubation",0.07 ± 0.03 µM
[Ru(phen)2(dppz)]^2+,IC50,"[2]; FLO1, 24 h constant exposure",> 100 µM
same,IC50,"[2]; FLO1, 72 h constant exposure",34 ± 5.7 µM
same,DDR activation (γH2AX immunoblotting),[11],no evidence of DDR activation
same,log P,[12],–1.48
same,IC50,"[4]; OE21, 24 h constant exposure",> 100 µM
same,IC50,"[4]; OE21, 72 h constant exposure",> 100 µM
same,IC50,"[5]; OE33, 24 h constant exposure",> 100 µM
same,IC50,"[5]; OE33, 72 h constant exposure",> 100 µM
